# From the supplement of paper PMC10307832
# Key:
# Experiment in all cases: relative viability (nuclei count vs DMSO), 5 days (fraction); higher = more cells survive
# [1] = test system: A-427
# Outline: (§1)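 A single step with final 0.05% Triton X-100, 1% formaldehyde and 1 ug/ml Hoechst fixed the cells and stained nuclei 5 days after treatment. Lung cancer cell lines in 1536-well plates had been treated by pin tool the day after seeding with one drug alone or a fixed anchor-drug dose plus five library-drug doses (not always all listed) in √10 steps, and nuclei were counted on 4× images. Relative viability is the ratio of nuclei in treated wells to nuclei in vehicle wells, taken as the median of duplicate plates.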
# [2] = test system: NCI-H2170
# Outline: as §1
# [3] = test system: HARA
# Outline: as §1
# [4] = test system: NCI-H322M
# Outline: as §1
# [5] = test system: LK-2
# Outline: as §1
# [6] = test system: SK-MES-1
# Outline: as §1
# [7] = test system: ABC-1
# Outline: as §1
# [8] = test system: PC-3 [JPC-3]
# Outline: as §1
# [9] = test system: LXF-289
# Outline: as §1
# [10] = test system: NCI-H727
# Outline: as §1
# [11] = test system: SW 1573
# Outline: as §1
# [12] = test system: EMC-BAC-2
# Outline: as §1
# [13] = test system: HOP-62
# Outline: as §1
# [14] = test system: NCI-H1944
# Outline: as §1
# [15] = test system: NCI-H1792
# Outline: as §1
# [16] = test system: NCI-H596
# Outline: as §1
# [17] = test system: NCI-H522
# Outline: as §1
# [18] = test system: NCI-H2228
# Outline: as §1
# [19] = test system: NCI-H1993
# Outline: as §1
# [20] = test system: SW 900
# Outline: as §1
# [21] = test system: NCI-H3122
# Outline: as §1
# [22] = test system: NCI-H2009
# Outline: as §1
smiles,measurement,setting,value
CC(=O)O[C@@]12CO[C@@H]1C[C@H](O)[C@@]1(C)C(=O)[C@H](O)C3=C(C)[C@@H](OC(=O)[C@H](O)[C@@H](NC(=O)OC(C)(C)C)c4ccccc4)C[C@@](O)([C@@H](OC(=O)c4ccccc4)[C@H]21)C3(C)C [Docetaxel] + O=C(c1cc(Cc2n[nH]c(=O)c3ccccc23)ccc1F)N1CCN(C(=O)C2CC2)CC1 [Olaparib] (partner 8 µM),relative viability,[1]; first compound 0.0002 µM,0.662
same,relative viability,[1]; first compound 0.000632 µM,0.704
same,relative viability,[1]; first compound 0.002 µM,0.538
same,relative viability,[1]; first compound 0.006325 µM,0.292
same,relative viability,[1]; first compound 0.02 µM,0.198
same,relative viability,[2]; first compound 0.0002 µM,0.611
same,relative viability,[2]; first compound 0.000632 µM,0.475
same,relative viability,[2]; first compound 0.002 µM,0.342
same,relative viability,[2]; first compound 0.006325 µM,0.136
same,relative viability,[2]; first compound 0.02 µM,0.126
same,relative viability,[3]; first compound 0.0002 µM,0.858
same,relative viability,[3]; first compound 0.000632 µM,0.335
same,relative viability,[3]; first compound 0.002 µM,0.161
same,relative viability,[3]; first compound 0.006325 µM,0.21
same,relative viability,[3]; first compound 0.02 µM,0.0824
same,relative viability,[4]; first compound 0.0002 µM,0.777
same,relative viability,[4]; first compound 0.000632 µM,0.797
same,relative viability,[4]; first compound 0.002 µM,0.721
same,relative viability,[4]; first compound 0.006325 µM,0.679
same,relative viability,[4]; first compound 0.02 µM,0.525
same,relative viability,[5]; first compound 0.0002 µM,0.599
same,relative viability,[5]; first compound 0.000632 µM,0.249
same,relative viability,[5]; first compound 0.002 µM,0.156
same,relative viability,[5]; first compound 0.006325 µM,0.118
same,relative viability,[5]; first compound 0.02 µM,0.0792
same,relative viability,[6]; first compound 0.0002 µM,0.719
same,relative viability,[6]; first compound 0.000632 µM,0.405
same,relative viability,[6]; first compound 0.002 µM,0.354
same,relative viability,[6]; first compound 0.02 µM,0.145
same,relative viability,[7]; first compound 0.0002 µM,0.649
same,relative viability,[7]; first compound 0.000632 µM,0.827
same,relative viability,[7]; first compound 0.002 µM,0.564
same,relative viability,[7]; first compound 0.006325 µM,0.535
same,relative viability,[7]; first compound 0.02 µM,0.338
same,relative viability,[8]; first compound 0.0002 µM,1.13
same,relative viability,[8]; first compound 0.000632 µM,1.03
same,relative viability,[8]; first compound 0.002 µM,0.585
same,relative viability,[8]; first compound 0.006325 µM,0.388
same,relative viability,[8]; first compound 0.02 µM,0.234
same,relative viability,[9]; first compound 0.0002 µM,1.06
same,relative viability,[9]; first compound 0.000632 µM,0.393
same,relative viability,[9]; first compound 0.002 µM,0.195
same,relative viability,[9]; first compound 0.006325 µM,0.111
same,relative viability,[9]; first compound 0.02 µM,0.0839
same,relative viability,[10]; first compound 0.0002 µM,0.664
same,relative viability,[10]; first compound 0.000632 µM,0.526
same,relative viability,[10]; first compound 0.002 µM,0.682
same,relative viability,[10]; first compound 0.006325 µM,0.645
same,relative viability,[10]; first compound 0.02 µM,0.524
same,relative viability,[11]; first compound 0.0002 µM,0.304
same,relative viability,[11]; first compound 0.000632 µM,0.223
same,relative viability,[11]; first compound 0.002 µM,0.199
same,relative viability,[11]; first compound 0.006325 µM,0.162
same,relative viability,[11]; first compound 0.02 µM,0.119
same,relative viability,[12]; first compound 0.0002 µM,0.492
same,relative viability,[12]; first compound 0.000632 µM,0.47
same,relative viability,[12]; first compound 0.002 µM,0.364
same,relative viability,[12]; first compound 0.006325 µM,0.318
same,relative viability,[12]; first compound 0.02 µM,0.237
same,relative viability,[13]; first compound 0.0002 µM,0.336
same,relative viability,[13]; first compound 0.000632 µM,0.317
same,relative viability,[13]; first compound 0.002 µM,0.129
same,relative viability,[13]; first compound 0.02 µM,0.12
same,relative viability,[14]; first compound 0.0002 µM,0.439
same,relative viability,[14]; first compound 0.000632 µM,0.396
same,relative viability,[14]; first compound 0.002 µM,0.339
same,relative viability,[14]; first compound 0.006325 µM,0.238
same,relative viability,[14]; first compound 0.02 µM,0.118
same,relative viability,[15]; first compound 0.0002 µM,0.281
same,relative viability,[15]; first compound 0.000632 µM,0.306
same,relative viability,[15]; first compound 0.002 µM,0.0724
same,relative viability,[15]; first compound 0.006325 µM,0.0761
same,relative viability,[15]; first compound 0.02 µM,0.0428
same,relative viability,[16]; first compound 0.0002 µM,0.685
same,relative viability,[16]; first compound 0.000632 µM,0.83
same,relative viability,[16]; first compound 0.002 µM,0.638
same,relative viability,[16]; first compound 0.006325 µM,0.418
same,relative viability,[16]; first compound 0.02 µM,0.338
same,relative viability,[17]; first compound 0.0002 µM,0.653
same,relative viability,[17]; first compound 0.000632 µM,0.459
same,relative viability,[17]; first compound 0.002 µM,0.532
same,relative viability,[17]; first compound 0.006325 µM,0.499
same,relative viability,[17]; first compound 0.02 µM,0.377
same,relative viability,[18]; first compound 0.0002 µM,0.446
same,relative viability,[18]; first compound 0.000632 µM,0.275
same,relative viability,[18]; first compound 0.002 µM,0.153
same,relative viability,[18]; first compound 0.006325 µM,0.13
same,relative viability,[18]; first compound 0.02 µM,0.0992
same,relative viability,[19]; first compound 0.0002 µM,0.929
same,relative viability,[19]; first compound 0.000632 µM,0.918
same,relative viability,[19]; first compound 0.002 µM,0.793
same,relative viability,[19]; first compound 0.006325 µM,0.531
same,relative viability,[19]; first compound 0.02 µM,0.409
same,relative viability,[20]; first compound 0.0002 µM,0.817
same,relative viability,[20]; first compound 0.000632 µM,0.353
same,relative viability,[20]; first compound 0.002 µM,0.281
same,relative viability,[20]; first compound 0.006325 µM,0.266
same,relative viability,[20]; first compound 0.02 µM,0.172
same,relative viability,[21]; first compound 0.0002 µM,0.658
same,relative viability,[21]; first compound 0.000632 µM,0.623
same,relative viability,[21]; first compound 0.002 µM,0.521
same,relative viability,[21]; first compound 0.006325 µM,0.202
same,relative viability,[21]; first compound 0.02 µM,0.129
same,relative viability,[22]; first compound 0.0002 µM,0.606
same,relative viability,[22]; first compound 0.000632 µM,0.79
same,relative viability,[22]; first compound 0.002 µM,0.562
same,relative viability,[22]; first compound 0.006325 µM,0.397
same,relative viability,[22]; first compound 0.02 µM,0.149
